How the values were obtained:
IRAK4 = target: T1, IRAK4 (Homo sapiens, UniProt Q9NWZ3); assay: IRAK4 Inhibition Assay (kinase reaction, Caliper capillary electrophoresis); type: biochemical; settings: 500 μM ATP, 11 concentrations
T1 construct: 1 nM IRAK4 (160-460); purchased SignalChem M24016
T1 sequence (Q9NWZ3 160-460): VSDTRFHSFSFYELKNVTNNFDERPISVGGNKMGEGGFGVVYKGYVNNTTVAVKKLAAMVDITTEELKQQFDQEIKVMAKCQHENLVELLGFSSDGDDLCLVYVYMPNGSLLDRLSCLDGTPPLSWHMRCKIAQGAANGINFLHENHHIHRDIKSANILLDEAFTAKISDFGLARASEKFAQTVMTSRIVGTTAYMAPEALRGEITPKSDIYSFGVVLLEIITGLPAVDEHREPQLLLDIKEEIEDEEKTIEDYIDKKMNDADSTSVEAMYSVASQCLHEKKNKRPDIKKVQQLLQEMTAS

HPK1 = target: T2, HPK1 (Homo sapiens, UniProt Q92918); assay: HPK1 Inhibition Assay (kinase reaction, Caliper capillary electrophoresis); type: biochemical; settings: for IC50: 0.625 nM HPK1, 22 μM ATP, 11 concentrations, read-out: HPK1 IC50; for IRAK4/HPK1 Ratio: ratio of the IRAK4 IC50 value to the HPK1 IC50 value
T2 construct: purchased SignalChem M23-11G
T2 sequence (Q92918 1-346 limits assumed): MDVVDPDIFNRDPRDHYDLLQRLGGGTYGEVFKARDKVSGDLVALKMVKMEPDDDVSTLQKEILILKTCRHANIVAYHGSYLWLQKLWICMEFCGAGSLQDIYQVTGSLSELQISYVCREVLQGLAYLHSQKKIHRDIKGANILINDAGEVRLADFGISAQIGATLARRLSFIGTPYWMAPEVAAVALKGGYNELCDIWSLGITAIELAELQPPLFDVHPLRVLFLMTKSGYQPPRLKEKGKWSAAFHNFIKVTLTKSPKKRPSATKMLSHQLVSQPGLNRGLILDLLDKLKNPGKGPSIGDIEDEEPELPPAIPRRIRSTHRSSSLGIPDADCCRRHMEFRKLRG
Method in brief: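 Kinase reactions ran 3 h and were stopped with 1 mM EDTA, with enzyme level and time set for at most 20-30% peptide substrate conversion. Phosphorylated and unphosphorylated peptide were separated by capillary electrophoresis to measure conversion. IC50 derived from 11 compound concentrations.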

SMILES: CC1(C)OC(=O)c2ccc(Nc3ncc(-c4nc(CN5CCOCC5)no4)c(N[C@H](CO)c4ccccc4)n3)cc21 [Example 32, 5-[(4-{[(1S)-2-hydroxy-1-phenylethyl]amino}-5-{3-[(morpholin-4-yl)methyl]-1,2,4-oxadiazol-5-yl}pyrimidin-2-yl)amino]-3,3-dimethyl-1,3-dihydro-2-benzofuran-1-one]
- IC50 (IRAK4): 250 to 1000 nM
- IC50 (HPK1): < 50 nM
- IRAK4/HPK1 Ratio (HPK1): C (C=>50)

SMILES: CC1(C)OC(=O)c2ccc(Nc3cc(NCc4cccnc4)c(-c4nc(C56CCN(CC5)CC6)no4)cn3)nc21 [Example 85, 2-{[5-(3-{1-azabicyclo[2.2.2]octan-4-yl}-1,2,4-oxadiazol-5-yl)-4-{[(pyridin-3-yl)methyl]amino}pyridin-2-yl]amino}-7,7-dimethyl-5H,7H-furo[3,4-b]pyridin-5-one]
- IC50 (IRAK4): 250 to 1000 nM
- IC50 (HPK1): < 50 nM
- IRAK4/HPK1 Ratio (HPK1): C (C=>50)

SMILES: CC(C)CNC(=O)c1cnc(Nc2ccc3c(c2)C(C)(C)OC3=O)nc1N[C@H](CO)c1ccccc1 [Example 12, 2-[(3,3-dimethyl-1-oxo-1,3-dihydro-2-benzofuran-5-yl)amino]-4-{[(1S)-2-hydroxy-1-phenylethyl]amino}-N-(2-methylpropyl)pyrimidine-5-carboxamide]
- IC50 (IRAK4): 250 to 1000 nM
- IC50 (HPK1): < 50 nM
- IRAK4/HPK1 Ratio (HPK1): B (B=10 to 50)

SMILES: CC1(C)OC(=O)c2ccc(Nc3ncc(C(=O)NNC(=O)c4cnccn4)c(N[C@H](CO)c4ccccc4)n3)cc21 [Example 58, N′-{2-[(3,3-dimethyl-1-oxo-1,3-dihydro-2-benzofuran-5-yl)amino]-4-{[(1S)-2-hydroxy-1-phenylethyl]amino}pyrimidine-5-carbonyl} pyrazine-2-carbohydrazide]
- IC50 (IRAK4): 250 to 1000 nM
- IC50 (HPK1): < 50 nM
- IRAK4/HPK1 Ratio (HPK1): B (B=10 to 50)

SMILES: CC1(C)OC(=O)c2ccc(Nc3ncc(-c4nnc(-c5cccnn5)o4)c(N[C@H](CO)c4ccccc4)n3)cc21 [Example 67, 5-[(4-{[(1S)-2-hydroxy-1-phenylethyl]amino}-5-[5-(pyridazin-3-yl)-1,3,4-oxadiazol-2-yl]pyrimidin-2-yl)amino]-3,3-dimethyl-1,3-dihydro-2-benzofuran-1-one]
- IC50 (IRAK4): 50 to 250 nM
- IC50 (HPK1): < 50 nM
- IRAK4/HPK1 Ratio (HPK1): B (B=10 to 50)

SMILES: CC1(C)OC(=O)c2ccc(Nc3ncc(C(=O)NCC4CC(F)(F)C4)c(N[C@H](CO)c4ccccc4)n3)cc21 [Example 4, N-[(3,3-difluorocyclobutyl)methyl]-2-[(3,3-dimethyl-1-oxo-1,3-dihydro-2-benzofuran-5-yl)amino]-4-{[(1S)-2-hydroxy-1-phenylethyl]amino}pyrimidine-5-carboxamide]
- IC50 (IRAK4): 250 to 1000 nM
- IC50 (HPK1): < 50 nM
- IRAK4/HPK1 Ratio (HPK1): B (B=10 to 50)

SMILES: CC(C)(CO)c1noc(-c2cnc(Nc3ccc4c(c3)C(C)(C)OC4=O)nc2N[C@H](CO)c2ccccc2)n1 [Example 41, (S)-5-((4-((2-hydroxy-1-phenylethyl)amino)-5-(3-(1-hydroxy-2-methylpropan-2-yl)-1,2,4-oxadiazol-5-yl)pyrimidin-2-yl)amino)-3,3-dimethylisobenzofuran-1(3H)-one]
- IC50 (IRAK4): 50 to 250 nM
- IC50 (HPK1): < 50 nM
- IRAK4/HPK1 Ratio (HPK1): C (C=>50)

SMILES: CC1(C)OC(=O)c2ccc(Nc3ncc(-c4nnc(C5CCS(=O)(=O)CC5)o4)c(N[C@H](CO)c4ccccc4)n3)cc21 [Example 69, (S)-5-((5-(5-(1,1-dioxidotetrahydro-2H-thiopyran-4-yl)-1,3,4-oxadiazol-2-yl)-4-((2-hydroxy-1-phenylethyl)amino)pyrimidin-2-yl)amino)-3,3-dimethylisobenzofuran-1(3H)-one]
- IC50 (IRAK4): 50 to 250 nM
- IC50 (HPK1): < 50 nM
- IRAK4/HPK1 Ratio (HPK1): B (B=10 to 50)

Source: patent publication US11166959B2, “Isofuranone compounds useful as HPK1 inhibitors” (BRISTOL-MYERS SQUIBB COMPANY, priority 2017, dated 2021)
